{"source": "patent US20240317683A1", "about": "“METHODS OF TREATING MOOD DISORDERS” (priority 2020, published 2024)", "key": {"[1]": {"assay": "Metabolic stability in mouse liver microsomes (MLM)", "format": "in vitro ADME, CD-1 mice", "details": "CD-1, mouse, pooled mouse liver microsomes, pH 7.4, NADPH", "procedure": "(§1) MLM Stability. Pooled MLM from CD-1 mice (BIOIVT M00501) were used. Microsomal incubations were carried out in multi-well plates. […] Control incubations were performed by replacing the NADPH-cofactor system with PBS. Test compounds (1 μM, final solvent concentration 1.0%) were incubated with microsomes at 37° C. with constant shaking. Six time points over 60 minutes were analyzed, with 60 μL aliquots of the reaction mixture being drawn at each time point."}, "5-HT2A": {"target": "5-HT2A (Homo sapiens (Human), UniProt P28223)", "assay": "FLIPR Ca2+ flux agonist assay, 5-HT2A", "format": "cell-based", "details": "HEK293", "procedure": "(§2) A solution of 250 mM probenecid in 1 mL FLIPR assay buffer was prepared fresh. This was combined with a fluorescent dye (Fluo-4 Direct™) to make a final assay concentration of 2.5 mM. […] The fluorescent dye was then added to the assay plate along with assay buffer to a final volume of 40 μL. The cell plate was incubated for 50 min at 37° C. and 5% CO2 and placed into the FLIPR Tetra along with the compound plate. 10 μL of references and compounds were then transferred from the compound plate into the cell plate and the fluorescent signal was read."}, "[2]": {"test_system": "monoamine oxidase A and B (MAO-A and MAO-B)", "assay": "Stability in the presence of monoamine oxidases (human liver mitochondria)", "format": "in vitro ADME", "details": "for MAO stability (in words): human liver mitochondria preparation; for half-life at 1 μM / microsomal CLint at 1 μM: human liver mitochondria, pH 7.4; for half-life at 1 μM / microsomal CLint at 1 μM / Remaining (t = 60 min): human mitochondrial preparation, 1 μM", "procedure": "Liver Mitochondria Incubations. Human liver mitochondria (Xenotech H0610.M) were used. Mitochondrial incubations were carried out in multi-well plates. […] Six time points over 60 minutes were analyzed."}, "[3]": {"assay": "Stability in rat brain homogenate", "format": "in vitro ADME, Sprague Dawley rats", "details": "for half-life at 1 μM: male, Sprague Dawley; for half-life at 1 μM / % Compound Remaining (after 120 min): rat brain homogenate, 37° C., 1 μM", "procedure": "Rat Brain Homogenate Stability. Frozen rat brain homogenate (pooled from male Sprague Dawley rats, BioreclamationIVT, RATOOBRAINMZA) was thawed in a water bath at 37° C. immediately prior to use. Positive controls and test compounds (final concentration in incubation medium=1 μM for test compounds and 2 μM for controls, all with 2% DMSO) were incubated in duplicate for each time point (0, 10, 30, 60, and 120 min) in the rat brain homogenate at a total reaction volume of 100 μL at 37° C. At the end of each incubation period, reactions were immediately quenched with 400 μL of acetonitrile containing internal standard (200 ng/ml tolbutamine and 200 ng/ml labetalol) and mixed thoroughly. Plates were then sealed, shaken for 20 min, and centrifuged at 4,000 rpm and 4° C. for 20 min. Aliquots of 50 μL of each supernatant were diluted into 100 uL of water and the mixtures were then shaken again for 10 min."}, "[4]": {"assay": "Pharmacokinetics in mice, plasma", "format": "in vivo, C57BL/6 mice", "details": "10 mg/kg", "procedure": "(§3) Animals. Male C57BL/6 mice, aged 8-12 weeks, were used in these studies. Four mice were housed in each cage. Temperature and humidity were maintained at 22±3° C. and 30-70%, respectively, and illumination was controlled to give a 12 h light and 12 h dark cycle. Temperature and humidity were recorded by an auto-controlled data logger system. All animals were provided laboratory rodent diet. Reverse osmosis water treated with ultraviolet light was provided ad libitum. Animals were randomly assigned to treatment groups.\n(§4) Drugs. Compounds 4 and 5 were prepared as described above. All other compounds were commercially obtained. Test compounds were used as the hydrogen fumarate (1 and 2) or hydrochloride (3, 4, and 5) salts and were dissolved in a vehicle consisting of normal saline. They were then administered intravenously (IV) via the tail vein, subcutaneously (SC), or orally (PO) via gavage at a dose of 1 or 10 mg/kg (calculated based on the free base) and at a volume of 5 ml/kg body weight.\n(§5) Sample Collection and Bioanalysis. Blood samples (approximately 60 μL) were collected under light isoflurane anesthesia (Surgivet®) from the retro orbital plexus at 0.08, 0.25, 0.5, 1, 2, 4, 8, and 24 h (4 animals per time point). Immediately after blood collection, plasma was harvested by centrifugation at 4,000 rpm for 10 min at 4° C. and samples were stored at −70±10° C. until bioanalysis. Following blood collection, animals were immediately sacrificed, the abdominal vena-cava was cut open, and the whole body was perfused from the heart using 10 mL of normal saline, and brain samples were collected from all animals. After isolation, brain samples were rinsed three times in ice-cold normal saline (for 5-10 seconds/rinse using ˜5-10 mL normal saline in disposable petri dish for each rinse) and dried on blotting paper. Brain samples were homogenized using ice-cold phosphate-buffered saline (pH 7.4). Total homogenate volume was three times the tissue weight. All homogenates were stored at −70±10° C. until bioanalysis. For bioanalysis, 25 μL aliquots of plasma/brain study samples or spiked plasma/brain calibration standards were added to individual pre-labeled micro-centrifuge tubes followed by 100 μL of an internal standard solution (glipizide, 500 ng/ml in acetonitrile) except for blanks, where 100 μL of acetonitrile was added. Samples were vortexed for 5 minutes and then centrifuged for 10 minutes at 4,000 rpm at 4° C. Following centrifugation, 100 μL of each clear supernatant was transferred to a 96 well plate and analyzed with a fit-for-purpose LC-MS/MS method, with authentic samples of each analyte used for calibration and identification.\n(§6) Data Analysis. Pharmacokinetic parameters were estimated using the non-compartmental analysis tool of Phoenix® WinNonlin software (Ver 8.0)."}, "[5]": {"assay": "Pharmacokinetics in mice, brain", "format": "in vivo, C57BL/6 mice", "details": "10 mg/kg; for Tmax / half-life / Cmax: male, C57BL/6; for Tmax / half-life / Cmax / AUC0-last: mouse brain", "procedure": "as §3, §4, §5, §6"}, "5-HT1A": {"target": "5-HT1A (Homo sapiens (Human), UniProt P08908)", "assay": "FLIPR Ca2+ flux agonist assay, 5-HT1A", "format": "cell-based", "procedure": "as §2"}, "[6]": {"assay": "Metabolic stability in rat liver microsomes (RLM)", "format": "in vitro ADME", "details": "both sexes, pooled rat liver microsomes, pH 7.4, NADPH", "procedure": "as §1, with “RLM” for “MLM”, “adult male and female donors (Xenotech R1000)” for “CD-1 mice (BIOIVT M00501)”"}, "[7]": {"details": "male, C57BL/6, mouse plasma, SC"}, "[8]": {"details": "male, C57BL/6, mouse plasma, IV"}, "[9]": {"details": "male, C57BL/6, mouse plasma, oral"}}, "note": "Like-named read-outs stand apart in the source and are kept apart here."}
{"smiles": "CCN(C)CCc1c[nH]c2cccc(O)c12", "note": "[Compound 6]", "values": [{"measurement": "half-life at 1 μM", "setting": "[1]", "result": "> 145", "unit": "min"}, {"measurement": "microsomal CLint at 1 μM", "setting": "[1]", "result": "< 9.6", "unit": "µL/min/mg"}, {"measurement": "5-HT2A % Act @ Max Dose", "setting": "5-HT2A", "result": 103.0, "unit": "%"}, {"measurement": "EC50", "setting": "5-HT2A", "result": 0.0151, "unit": "µM"}, {"measurement": "MAO stability (in words)", "setting": "[2]", "result": "highly stable"}, {"measurement": "half-life at 1 μM", "setting": "[2]", "result": "> 145", "unit": "min"}, {"measurement": "microsomal CLint at 1 μM", "setting": "[2]", "result": "< 15.9", "unit": "µL/min/mg"}, {"measurement": "Remaining (t = 60 min)", "setting": "[2]", "result": 112.3, "unit": "%"}, {"measurement": "stability in rat brain homogenate (in words)", "setting": "[3]", "result": "intermediate stability"}, {"measurement": "half-life at 1 μM", "setting": "[3]", "result": 53, "unit": "min"}, {"measurement": "% Compound Remaining (after 120 min)", "setting": "[3]", "result": 20.9, "unit": "%"}, {"measurement": "AUC(0-t)", "setting": "[4]; [7]", "result": 1410, "unit": "ng·h/mL"}, {"measurement": "Tmax", "setting": "[4]; [7]", "result": 4.8, "unit": "min"}, {"measurement": "half-life", "setting": "[4]; [7]", "result": 66, "unit": "min"}, {"measurement": "Cmax", "setting": "[4]; male, C57BL/6, mouse plasma, SC, read-out: Cmax", "result": 1160, "unit": "ng/mL"}, {"measurement": "Tmax", "setting": "[5]; SC", "result": 30, "unit": "min"}, {"measurement": "half-life", "setting": "[5]; SC", "result": 64.2, "unit": "min"}, {"measurement": "Cmax", "setting": "[5]; SC, read-out: Cmax", "result": 2920, "unit": "ng/g"}, {"measurement": "AUC0-last", "setting": "[5]; SC", "result": "3,549.18 h*ng/g"}, {"measurement": "5-HT1A % Act @ Max Dose", "setting": "5-HT1A; Ca2+ flux, CHO cells", "result": 72.96, "unit": "%"}, {"measurement": "EC50", "setting": "5-HT1A; Ca2+ flux, CHO cells, read-out: 5-HT1A EC50", "result": 14.7, "unit": "µM"}, {"measurement": "half-life at 1 μM", "setting": "[6]", "result": 50.1, "unit": "min"}, {"measurement": "microsomal CLint at 1 μM", "setting": "[6]", "result": 27.7, "unit": "µL/min/mg"}]}
{"smiles": "CCCN(CC)CCc1c[nH]c2ccccc12", "note": "[Compound 1, ethylpropyltryptamine]", "values": [{"measurement": "half-life at 1 μM", "setting": "[1]", "result": 6, "unit": "min"}, {"measurement": "microsomal CLint at 1 μM", "setting": "[1]", "result": 231, "unit": "µL/min/mg"}, {"measurement": "EC50", "setting": "5-HT2A", "result": 0.0305, "unit": "µM"}, {"measurement": "MAO stability (in words)", "setting": "[2]", "result": "highly stable"}, {"measurement": "half-life at 1 μM", "setting": "[2]", "result": "> 145", "unit": "min"}, {"measurement": "microsomal CLint at 1 μM", "setting": "[2]", "result": "< 15.9", "unit": "µL/min/mg"}, {"measurement": "Remaining (t = 60 min)", "setting": "[2]", "result": 95.1, "unit": "%"}, {"measurement": "stability in rat brain homogenate (in words)", "setting": "[3]", "result": "high stability"}, {"measurement": "half-life at 1 μM", "setting": "[3]", "result": "> 289", "unit": "min"}, {"measurement": "% Compound Remaining (after 120 min)", "setting": "[3]", "result": 86.9, "unit": "%"}, {"measurement": "AUC(0-t)", "setting": "[4]; [8]", "result": 844, "unit": "ng·h/mL"}, {"measurement": "clearance", "setting": "[4]; [8]", "result": 197, "unit": "mL/min/kg"}, {"measurement": "half-life", "setting": "[4]; [8]", "result": 114, "unit": "min"}, {"measurement": "Cmax", "setting": "[4]; male, C57BL/6, mouse plasma, IV, read-out: Cmax (C0 back-extrapolated to t = 0)", "result": 3820, "unit": "ng/mL"}, {"measurement": "AUC(0-t)", "setting": "[4]; [9]", "result": 22.1, "unit": "ng·h/mL"}, {"measurement": "Tmax", "setting": "[4]; [9]", "result": 4.8, "unit": "min"}, {"measurement": "half-life", "setting": "[4]; [9]", "result": 113, "unit": "min"}, {"measurement": "Cmax", "setting": "[4]; male, C57BL/6, mouse plasma, oral, read-out: Cmax", "result": 20.3, "unit": "ng/mL"}, {"measurement": "F", "setting": "[4]; mouse, oral, based on plasma AUC0-last", "result": 2.6, "unit": "%"}, {"measurement": "half-life", "setting": "[5]; IV", "result": 104, "unit": "min"}, {"measurement": "Cmax", "setting": "[5]; IV, read-out: Cmax (C0 back-extrapolated to t = 0)", "result": 15400, "unit": "ng/g"}, {"measurement": "Tmax", "setting": "[5]; oral", "result": 15, "unit": "min"}, {"measurement": "half-life", "setting": "[5]; oral", "result": 39.6, "unit": "min"}, {"measurement": "Cmax", "setting": "[5]; oral, read-out: Cmax", "result": 101, "unit": "ng/g"}, {"measurement": "AUC0-last", "setting": "[5]; IV", "result": "4,754.52 h*ng/g"}, {"measurement": "AUC0-last", "setting": "[5]; oral", "result": 68.93, "unit": "ng·h/g"}, {"measurement": "F", "setting": "[5]; mouse, oral, based on brain AUC0-last", "result": 1.4, "unit": "%"}, {"measurement": "EC50", "setting": "5-HT1A", "result": 88.7, "unit": "µM"}, {"measurement": "5-HT1A % Act @ Max Dose", "setting": "5-HT1A; Ca2+ flux, CHO cells", "result": 75.5, "unit": "%"}, {"measurement": "half-life at 1 μM", "setting": "[6]", "result": 1.4, "unit": "min"}, {"measurement": "microsomal CLint at 1 μM", "setting": "[6]", "result": 970, "unit": "µL/min/mg"}]}
